Source: patent publication US6479435B1, “Diaryl ethers and processes for their preparation and herbicidal and desiccant compositions containing them” (ISK Americas Incorporated, priority 1997, dated 2002)

How the values were obtained:
Type in all cases: in vivo
[1] = test system: upland rice (Oryza sp., var.Tebonnet, RICE); experiment: Post-emerge greenhouse test, crop damage rating; conditions: 14 days after application
How it was run: (§1)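 Scores use a 0 (no damage) to 100 (complete kill) scale, taken 14 days after a foliar spray. Acetone solutions with 0.25% v/v non-ionic surfactant were applied by track sprayer at 187 l/ha and 63-1000 g ai/ha to bottom-watered 2-3 leaf plants.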

[2] = test system: field corn (Zea mays L., var. Dekalb 535, CORN); experiment: Post-emerge greenhouse test, crop damage rating; conditions: 14 days after application
How it was run: as §1

[3] = test system: common ragweed (Ambrosia artemisiifolia L., AMBEL); experiment: Post-emerge greenhouse herbicide test, phytotoxicity rating; conditions: 14 days after application
How it was run: as §1

[4] = test system: upland rice (Oryza sp., var.Tebonnet, RICE); experiment: Pre-emerge greenhouse test, crop damage rating; conditions: 14 days after application, rating scale 0-100
How it was run: (§2)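 Visual 0–100 injury rating (100 = all plants dead) taken 14 days after treatment. Rates of 125–1000 g ai/ha in acetone, 187 l/ha, were sprayed onto soil one day post-sowing; pots were surface-watered to incorporate, then bottom-watered.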

[5] = test system: field corn (Zea mays L., var. Dekalb 535, CORN); experiment: Pre-emerge greenhouse test, crop damage rating; conditions: 14 days after application, rating scale 0-100
How it was run: as §2

[6] = test system: soybean (Glycine max L., var. Pella 86, SOY); experiment: Post-emerge greenhouse test, crop damage rating; conditions: 14 days after application
How it was run: as §1

[7] = test system: velvetleaf (Abutilon theophrasti, ABUTH); experiment: Post-emerge greenhouse herbicide test, phytotoxicity rating; conditions: 14 days after application
How it was run: as §1

[8] = test system: sicklepod (Cassia obtusifolia, CASOB); experiment: as above; conditions: 14 days after application
How it was run: as §1

[9] = test system: green foxtail (Setaria viridis, SETVI); experiment: as above; conditions: 14 days after application
How it was run: as §1

[10] = test system: lambsquarters (Chenopodium album, CHEAL); experiment: as above; conditions: 14 days after application
How it was run: as §1

[11] = test system: Johnsongrass (Sorghum halepense, SORHA); experiment: as above; conditions: 14 days after application
How it was run: as §1

[12] = test system: barnyardgrass (Echinochloa crusgalli, ECHCG); experiment: as above; conditions: 14 days after application
How it was run: as §1

[13] = test system: ivyleaf morningglory (Ipomoea hederacea, IPOHE); experiment: as above; conditions: 14 days after application
How it was run: as §1

[14] = test system: redroot pigweed (Amaranthus retroflexus, AMARE); experiment: as above; conditions: 14 days after application
How it was run: as §1

[15] = test system: large crabgrass (Digitaria sanguinalis, DIGSA); experiment: as above; conditions: 14 days after application
How it was run: as §1

[16] = test system: velvetleaf (Abutilon theophrasti, ABUTH); experiment: Pre-emerge greenhouse herbicide test, phytotoxicity rating; conditions: 14 days after application, rating scale 0-100
How it was run: as §2

[17] = test system: sicklepod (Cassia obtusifolia, CASOB); experiment: as above; conditions: 14 days after application, rating scale 0-100
How it was run: as §2

[18] = test system: green foxtail (Setaria viridis, SETVI); experiment: as above; conditions: 14 days after application, rating scale 0-100
How it was run: as §2

[19] = test system: common ragweed (Ambrosia artemisiifolia L., AMBEL); experiment: as above; conditions: 14 days after application, rating scale 0-100
How it was run: as §2

[20] = test system: lambsquarters (Chenopodium album, CHEAL); experiment: as above; conditions: 14 days after application, rating scale 0-100
How it was run: as §2

[21] = test system: Johnsongrass (Sorghum halepense, SORHA); experiment: as above; conditions: 14 days after application, rating scale 0-100
How it was run: as §2

[22] = test system: barnyardgrass (Echinochloa crusgalli, ECHCG); experiment: as above; conditions: 14 days after application, rating scale 0-100
How it was run: as §2

[23] = test system: ivyleaf morningglory (Ipomoea hederacea, IPOHE); experiment: as above; conditions: 14 days after application, rating scale 0-100
How it was run: as §2

[24] = test system: redroot pigweed (Amaranthus retroflexus, AMARE); experiment: as above; conditions: 14 days after application, rating scale 0-100
How it was run: as §2

[25] = test system: large crabgrass (Digitaria sanguinalis, DIGSA); experiment: as above; conditions: 14 days after application, rating scale 0-100
How it was run: as §2

[26] = test system: soybean (Glycine max L., var. Pella 86, SOY); experiment: Pre-emerge greenhouse test, crop damage rating; conditions: 14 days after application, rating scale 0-100
How it was run: as §2

## Nc1ccc(Oc2cc(-n3c(=O)n4n(c3=S)CCCC4)c(F)cc2Cl)c(C(F)(F)F)c1 [Compound 8-15]
[1]; 63 g al/ha
  RICE crop damage rating (0-100): 0
[1]; 500 g al/ha
  RICE crop damage rating (0-100): 0
[2]; 63 g al/ha
  CORN crop damage rating (0-100): 0
[2]; 500 g al/ha
  CORN crop damage rating (0-100): 0
[3]; 63 g al/ha
  AMBEL phytotoxicity rating (0-100): 30
[3]; 500 g al/ha
  AMBEL phytotoxicity rating (0-100): 70
[4]; 125 g ai/ha
  crop damage rating RICE: 0
[4]; 500 g ai/ha
  crop damage rating RICE: 0
[5]; 125 g ai/ha
  crop damage rating CORN: 0
[5]; 500 g ai/ha
  crop damage rating CORN: 0
[6]; 63 g al/ha
  SOY crop damage rating (0-100): 20
[6]; 500 g al/ha
  SOY crop damage rating (0-100): 50
[7]; 63 g al/ha
  ABUTH phytotoxicity rating (0-100): 50
[7]; 500 g al/ha
  ABUTH phytotoxicity rating (0-100): 80
[8]; 63 g al/ha
  CASOB phytotoxicity rating (0-100): 0
[8]; 500 g al/ha
  CASOB phytotoxicity rating (0-100): 50
[9]; 63 g al/ha
  SETVI phytotoxicity rating (0-100): 0
[9]; 500 g al/ha
  SETVI phytotoxicity rating (0-100): 0
[10]; 63 g al/ha
  CHEAL phytotoxicity rating (0-100): 70
[10]; 500 g al/ha
  CHEAL phytotoxicity rating (0-100): 90
[11]; 63 g al/ha
  SORHA phytotoxicity rating (0-100): 0
[11]; 500 g al/ha
  SORHA phytotoxicity rating (0-100): 0
[12]; 63 g al/ha
  ECHCG phytotoxicity rating (0-100): 0
[12]; 500 g al/ha
  ECHCG phytotoxicity rating (0-100): 0
[13]; 63 g al/ha
  IPOHE phytotoxicity rating (0-100): 40
[13]; 500 g al/ha
  IPOHE phytotoxicity rating (0-100): 80
[14]; 63 g al/ha
  AMARE phytotoxicity rating (0-100): 40
[14]; 500 g al/ha
  AMARE phytotoxicity rating (0-100): 70
[15]; 63 g al/ha
  DIGSA phytotoxicity rating (0-100): 0
[15]; 500 g al/ha
  DIGSA phytotoxicity rating (0-100): 0
[16]; 125 g ai/ha
  phytotoxicity rating ABUTH: 0
[16]; 500 g ai/ha
  phytotoxicity rating ABUTH: 50
[17]; 125 g ai/ha
  phytotoxicity rating CASOB: 0
[17]; 500 g ai/ha
  phytotoxicity rating CASOB: 0
[18]; 125 g ai/ha
  phytotoxicity rating SETVI: 0
[18]; 500 g ai/ha
  phytotoxicity rating SETVI: 0
[19]; 125 g ai/ha
  phytotoxicity rating AMBEL: 0
[19]; 500 g ai/ha
  phytotoxicity rating AMBEL: 0
[20]; 125 g ai/ha
  phytotoxicity rating CHEAL: 0
[20]; 500 g ai/ha
  phytotoxicity rating CHEAL: 100
[21]; 125 g ai/ha
  phytotoxicity rating SORHA: 0
[21]; 500 g ai/ha
  phytotoxicity rating SORHA: 0
[22]; 125 g ai/ha
  phytotoxicity rating ECHCG: 0
[22]; 500 g ai/ha
  phytotoxicity rating ECHCG: 0
[23]; 125 g ai/ha
  phytotoxicity rating IPOHE: 0
[23]; 500 g ai/ha
  phytotoxicity rating IPOHE: 0
[24]; 125 g ai/ha
  phytotoxicity rating AMARE: 0
[24]; 500 g ai/ha
  phytotoxicity rating AMARE: 40
[25]; 125 g ai/ha
  phytotoxicity rating DIGSA: 0
[25]; 500 g ai/ha
  phytotoxicity rating DIGSA: 0
[26]; 125 g ai/ha
  crop damage rating SOY: 0
[26]; 500 g ai/ha
  crop damage rating SOY: 0

## O=c1n(-c2cc(Oc3ccccc3)c(Cl)cc2F)c(=S)n2n1CCCC2 [Compound 8-5]
[1]; 63 g al/ha
  RICE crop damage rating (0-100): 0
[1]; 500 g al/ha
  RICE crop damage rating (0-100): 10
[2]; 63 g al/ha
  CORN crop damage rating (0-100): 5
[2]; 500 g al/ha
  CORN crop damage rating (0-100): 20
[3]; 63 g al/ha
  AMBEL phytotoxicity rating (0-100): 55
[3]; 500 g al/ha
  AMBEL phytotoxicity rating (0-100): 100
[4]; 125 g ai/ha
  crop damage rating RICE: 0
[4]; 500 g ai/ha
  crop damage rating RICE: 25
[5]; 125 g ai/ha
  crop damage rating CORN: 0
[5]; 500 g ai/ha
  crop damage rating CORN: 5
[6]; 63 g al/ha
  SOY crop damage rating (0-100): 50
[6]; 500 g al/ha
  SOY crop damage rating (0-100): 85
[7]; 63 g al/ha
  ABUTH phytotoxicity rating (0-100): 100
[7]; 500 g al/ha
  ABUTH phytotoxicity rating (0-100): 100
[8]; 63 g al/ha
  CASOB phytotoxicity rating (0-100): 55
[8]; 500 g al/ha
  CASOB phytotoxicity rating (0-100): 100
[9]; 63 g al/ha
  SETVI phytotoxicity rating (0-100): 30
[9]; 500 g al/ha
  SETVI phytotoxicity rating (0-100): 65
[10]; 63 g al/ha
  CHEAL phytotoxicity rating (0-100): 100
[10]; 500 g al/ha
  CHEAL phytotoxicity rating (0-100): 100
[11]; 63 g al/ha
  SORHA phytotoxicity rating (0-100): 10
[11]; 500 g al/ha
  SORHA phytotoxicity rating (0-100): 60
[12]; 63 g al/ha
  ECHCG phytotoxicity rating (0-100): 20
[12]; 500 g al/ha
  ECHCG phytotoxicity rating (0-100): 55
[13]; 63 g al/ha
  IPOHE phytotoxicity rating (0-100): 90
[13]; 500 g al/ha
  IPOHE phytotoxicity rating (0-100): 100
[14]; 63 g al/ha
  AMARE phytotoxicity rating (0-100): 100
[14]; 500 g al/ha
  AMARE phytotoxicity rating (0-100): 100
[15]; 63 g al/ha
  DIGSA phytotoxicity rating (0-100): 0
[15]; 500 g al/ha
  DIGSA phytotoxicity rating (0-100): 70
[16]; 125 g ai/ha
  phytotoxicity rating ABUTH: 100
[16]; 500 g ai/ha
  phytotoxicity rating ABUTH: 100
[17]; 125 g ai/ha
  phytotoxicity rating CASOB: 30
[17]; 500 g ai/ha
  phytotoxicity rating CASOB: 95
[18]; 125 g ai/ha
  phytotoxicity rating SETVI: 80
[18]; 500 g ai/ha
  phytotoxicity rating SETVI: 100
[19]; 125 g ai/ha
  phytotoxicity rating AMBEL: 40
[19]; 500 g ai/ha
  phytotoxicity rating AMBEL: 100
[20]; 125 g ai/ha
  phytotoxicity rating CHEAL: 100
[20]; 500 g ai/ha
  phytotoxicity rating CHEAL: 100
[21]; 125 g ai/ha
  phytotoxicity rating SORHA: 20
[21]; 500 g ai/ha
  phytotoxicity rating SORHA: 30
[22]; 125 g ai/ha
  phytotoxicity rating ECHCG: 0
[22]; 500 g ai/ha
  phytotoxicity rating ECHCG: 60
[23]; 125 g ai/ha
  phytotoxicity rating IPOHE: 0
[23]; 500 g ai/ha
  phytotoxicity rating IPOHE: 70
[24]; 125 g ai/ha
  phytotoxicity rating AMARE: 95
[24]; 500 g ai/ha
  phytotoxicity rating AMARE: 100
[25]; 125 g ai/ha
  phytotoxicity rating DIGSA: 40
[25]; 500 g ai/ha
  phytotoxicity rating DIGSA: 85
[26]; 125 g ai/ha
  crop damage rating SOY: 0
[26]; 500 g ai/ha
  crop damage rating SOY: 40
